Measured values from patent US10144715B2, “Piperazine derivatives as liver X receptor modulators” (priority 2014, dated 2018).
Where two headings read alike, the source gives them in different places. Values belong to the compound of their own block, whether it stands above or below them.

Tests used:
[1] = target: Gal4 DNA binding domain fused to the LBD of LXRβ in HEK293 cells (Homo sapiens (Human), UniProt P55055); assay: cell-based
[2] = target: LXR β LBD protein (Homo sapiens (Human), UniProt P55055); assay: biochemical; assay type: binding
[3] = target: Gal4 DNA binding domain fused to the LBD of LXRα in HEK293 cells (Homo sapiens (Human), UniProt Q13133); assay: LXR luciferase transcriptional reporter gene assay, agonist mode, LXRα; assay type: cell-based; details: for EC50: read-out: Cell LXRα EC50
[4] = target: LXR α LBD protein (Homo sapiens (Human), UniProt Q13133); assay: LXR α radioligand binding assay (SPA, competition with [3H]TO901317); details: read-out: LXRα Binding Ki
[5] = Biological Test Example 2, agonist mode
[6] = Biological Test Example 1, read-out: LXRβ Binding Ki

Sequence of Gal4 DNA binding domain fused to the LBD of LXRβ in HEK293 cells (P55055 222-460 limits assumed): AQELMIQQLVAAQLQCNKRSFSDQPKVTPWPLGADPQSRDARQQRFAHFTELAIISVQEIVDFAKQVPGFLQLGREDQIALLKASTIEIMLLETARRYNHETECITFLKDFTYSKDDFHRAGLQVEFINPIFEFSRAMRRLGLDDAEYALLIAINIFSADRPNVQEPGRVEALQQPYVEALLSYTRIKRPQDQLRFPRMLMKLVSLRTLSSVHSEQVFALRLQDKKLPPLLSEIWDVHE
Sequence of LXR β LBD protein (P55055 222-460 limits assumed): as above
Sequence of Gal4 DNA binding domain fused to the LBD of LXRα in HEK293 cells (Q13133 209-447): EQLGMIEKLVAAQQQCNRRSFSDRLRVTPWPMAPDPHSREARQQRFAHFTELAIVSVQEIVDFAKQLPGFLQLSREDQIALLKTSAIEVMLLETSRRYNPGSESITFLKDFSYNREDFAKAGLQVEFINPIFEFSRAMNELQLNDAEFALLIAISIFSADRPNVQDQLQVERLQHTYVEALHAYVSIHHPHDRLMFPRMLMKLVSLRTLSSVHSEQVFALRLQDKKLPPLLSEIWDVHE
Sequence of LXR α LBD protein (Q13133 209-447): as above

Compound: CC(C)[C@@H]1CN(c2ccc(F)c(S(C)(=O)=O)c2)CCN1c1nc(C(F)(F)F)c(C(C)(C)O)s1 [Cpd No 26-1, (R)-2-(2-(4-(4-fluoro-3-(methylsulfonyl)phenyl)-2-isopropylpiperazin-1-yl)-4-(trifluoromethyl)thiazol-5-yl)propan-2-ol]
- EC50 [1]: 185 nM
- Cell LXRβ efficacy ([1]; agonist mode): 185 (98) %
- Ki ([2]; read-out: LXRβ Binding Ki): 5 nM
- Cell LXRα efficacy [3]: 584 (102) %
- EC50 ([3]; agonist mode): 584 nM
- Ki [4]: 111 nM

Compound: C[C@](O)(c1ccc(CN2CCN(c3cccc(S(C)(=O)=O)c3)C[C@H]2c2ccccc2)cc1)C(F)(F)F [46-29, (S)-1,1,1-trifluoro-2-(4-(((R)-4-(3-(methylsulfonyl)phenyl)-2-phenylpiperazin-1-yl)methyl)phenyl)propan-2-ol]
- EC50 [1]: > 20000 nM
- Ki [2]: 1860 nM
- EC50 [3]: > 20000 nM
- Ki [4]: 6320 nM

Compound: CO[C@]1(C(F)(F)F)CC[C@@H](CN2CCN(c3ccc(CO)c(S(C)(=O)=O)c3)C[C@@H]2C(C)C)CC1 (single isomer, unassigned) [Cpd No 48-79]
- EC50 [1]: 1 nM
- Cell LXRβ efficacy [1, 5]: 1 (115) %
- Ki [2, 6]: 2 nM
- Cell LXRα efficacy [3]: 6 (58) %
- EC50 [3, 5]: 6 nM
- Ki [4]: 5 nM

Compound: COC(=O)c1cnc(N2CCN(c3ccc(F)c(S(C)(=O)=O)c3)C[C@H]2C(C)C)nc1 [7-14, methyl (R)-2-(4-(4-fluoro-3-(methylsulfonyl)phenyl)-2-isopropylpiperazin-1-yl)pyrimidine-5-carboxylate]
- EC50 [1]: 379 nM
- Cell LXRβ efficacy ([1]; agonist mode): 379 (17) %
- Ki ([2]; read-out: LXRβ Binding Ki): 285 nM
- Cell LXRα efficacy [3]: 7124 (30) %
- EC50 [3]: 7120 nM
- Ki [4]: 2870 nM

Compound: CC(C)[C@@H]1CN(c2ccc(CO)c(S(C)(=O)=O)c2)CCN1c1nc(C(F)(F)F)c(C(=O)N(C)C)s1 [17-34, (R)-2-(4-(4-(hydroxymethyl)-3-(methylsulfonyl)phenyl)-2-isopropylpiperazin-1-yl)-N,N-dimethyl-4-(trifluoromethyl)thiazole-5-carboxamide]
- EC50 [1]: 105 nM
- Cell LXRβ efficacy ([1]; agonist mode): 105 (94) %
- Ki ([2]; read-out: LXRβ Binding Ki): 23 nM
- Cell LXRα efficacy [3]: 465 (98) %
- EC50 ([3]; agonist mode): 465 nM
- Ki [4]: 152 nM

- EC50 [1]: > 20000 nM
- Ki [2]: 1800 nM
- EC50 ([3]; agonist mode): > 20000 nM
- Ki [4]: > 3330 nM
Compound: CCN(CCOC)C(=O)c1cnc(N2CCN(c3ccc(F)c(S(C)(=O)=O)c3)C[C@H]2C(C)C)nc1C [17-30, (R)-N-ethyl-2-(4-(4-fluoro-3-(methylsulfonyl)phenyl)-2-isopropylpiperazin-1-yl)-N-(2-methoxyethyl)-4-methylpyrimidine-5-carboxamide]

Compound: CC(C)(O)CC1CN(c2ccc(F)c(S(C)(=O)=O)c2)CCN1c1ccc(C(F)(F)F)cn1 (stereo not shown) [34-1, 1-(4-(4-fluoro-3-(methylsulfonyl)phenyl)-1-(5-(trifluoromethyl)pyridin-2-yl)piperazin-2-yl)-2-methylpropan-2-ol]
- EC50 [1]: 670 nM
- Cell LXRβ efficacy ([1]; agonist mode): 670 (83) %
- Ki ([2]; read-out: LXRβ Binding Ki): 151 nM
- Cell LXRα efficacy [3]: 2456 (78) %
- EC50 [3]: 2460 nM
- Ki [4]: 1240 nM

Compound: CC(C)[C@@H]1CN(c2ccc(F)c(S(C)(=O)=O)c2)CCN1c1ncc(C(F)(F)F)c(C(C)(C)O)n1 [Cpd No 39-1, (R)-2-(2-(4-(4-fluoro-3-(methylsulfonyl)phenyl)-2-isopropylpiperazin-1-yl)-5-(trifluoromethyl)pyrimidin-4-yl)propan-2-ol]
- EC50 [1]: 86 nM
- Cell LXRβ efficacy ([1]; agonist mode): 86 (62) %
- Ki ([2]; read-out: LXRβ Binding Ki): 2 nM
- Cell LXRα efficacy [3]: 327 (96) %
- EC50 [3]: 327 nM
- Ki [4]: 53 nM

Compound: CC(C)[C@H]1CN(c2ccc(CO)c(S(C)(=O)=O)c2)CCN1Cc1ccc(C(F)(F)F)cc1 [47-2, (S)-(4-(3-isopropyl-4-(4-(trifluoromethyl)benzyl)piperazin-1-yl)-2-(methylsulfonyl)phenyl)methanol]
- Cell LXRβ efficacy [1]: 159 (65) %
- EC50 [1]: 159 nM
- Ki ([2]; read-out: LXRβ Binding Ki): 27 nM
- Cell LXRα efficacy [3]: 455 (70) %
- EC50 [3]: 455 nM
- Ki [4]: 119 nM

- EC50 [1]: > 20000 nM
- Ki [2]: 515 nM
- EC50 [3]: > 20000 nM
- Ki [4]: > 3330 nM
Compound: Cc1nc(N2CCN(c3ccc(F)c(S(C)(=O)=O)c3)C[C@H]2C(C)C)ncc1CO [11-14, (R)-(2-(4-(4-fluoro-3-(methylsulfonyl)phenyl)-2-isopropylpiperazin-1-yl)-4-methylpyrimidin-5-yl)methanol]

Compound: CS(=O)(=O)c1cccc(N2CCN(C[C@H]3CC[C@](C)(O)CC3)[C@H](c3ccccc3)C2)c1 (single isomer, unassigned) [Cpd No 48-8]
- EC50 ([1]; agonist mode, read-out: Cell LXRβ EC50): > 20000 nM
- Ki ([2]; read-out: LXRβ Binding Ki): > 2500 nM
- EC50 [3]: > 20000 nM
- Ki [4]: > 3330 nM

Compound: CO[C@H]1CC[C@@H](CN2CCN(c3ccc(CO)c(S(C)(=O)=O)c3)C[C@@H]2C(C)C)CC1 (single isomer, unassigned) [Cpd No 51-7]
- EC50 [1]: 42 nM
- Cell LXRβ efficacy [1, 5]: 42 (84) %
- Ki ([2]; read-out: LXRβ Binding Ki): 51 nM
- Cell LXRα efficacy [3]: 154 (80) %
- EC50 [3]: 154 nM
- Ki [4]: 303 nM

Compound: CC(C)[C@@H]1CN(c2ccc(F)c(S(C)(=O)=O)c2)CCN1c1nc2cnccc2s1 [7-58, (R)-2-(4-(4-fluoro-3-(methylsulfonyl)phenyl)-2-isopropylpiperazin-1-yl)thiazolo[4,5-c]pyridine]
- Cell LXRβ efficacy [1]: 1154 (31) %
- EC50 [1]: 1150 nM
- Ki ([2]; read-out: LXRβ Binding Ki): 509 nM
- Cell LXRα efficacy [3]: 6486 (31) %
- EC50 [3]: 6490 nM
- Ki [4]: 2960 nM

Compound: CO[C@H]1CC[C@H](CN2CCN(c3ccc(CO)c(S(C)(=O)=O)c3)C[C@@H]2C(C)C)CC1 (single isomer, unassigned) [51-6]
- Cell LXRβ efficacy [1, 5]: 45%
- EC50 ([1]; Biological Test Example 2, agonist mode, read-out: Cell LXRβ EC50): 400 nM
- Ki [2, 6]: 543 nM
- Cell LXRα efficacy [3]: 1772 (45) %
- EC50 [3]: 1770 nM
- Ki [4]: 2800 nM

Compound: CC(C)[C@H]1CN(c2cccc(S(C)(=O)=O)c2)CCN1C[C@@H]1CC[C@@H](C(F)(F)F)OC1 (single isomer, unassigned) [Cpd No 49-7]
- Cell LXRβ efficacy [1]: 132 (76) %
- EC50 [1]: 132 nM
- Ki ([2]; read-out: LXRβ Binding Ki): 45 nM
- Cell LXRα efficacy [3]: 523 (82) %
- EC50 [3]: 523 nM
- Ki [4]: 333 nM

Compound: CC(C)[C@H]1CN(c2ccc(CO)c(S(C)(=O)=O)c2)CCN1C[C@@H]1CC[C@H](C(F)(F)F)OC1 [Cpd No 49-4, (4-((S)-3-isopropyl-4-(((3S,6R)-6-(trifluoromethyl)tetrahydro-2H-pyran-3-yl)methyl)piperazin-1-yl)-2-(methylsulfonyl)phenyl)methanol]
- Cell LXRβ efficacy [1]: 20 (101) %
- EC50 [1]: 20 nM
- Ki ([2]; read-out: LXRβ Binding Ki): 7 nM
- Cell LXRα efficacy [3]: 27 (80) %
- EC50 [3]: 27 nM
- Ki [4]: 44 nM

Compound: CO[C@]1(C(F)(F)F)CC[C@H](CN2CCN(c3ccc(CO)c(S(C)(=O)=O)c3)C[C@@H]2C(C)C)CC1 (single isomer, unassigned) [Cpd No 48-80]
- EC50 [1]: 18 nM
- Cell LXRβ efficacy [1, 5]: 18 (99) %
- Ki [2, 6]: 3 nM
- Cell LXRα efficacy [3]: 27 (73) %
- EC50 [3, 5]: 27 nM
- Ki [4]: 30 nM

Compound: CC(C)[C@@H]1CN(c2ccc(C(N)=O)c(S(C)(=O)=O)c2Cl)CCN1c1nccc(C(F)(F)F)n1 [4-3, (R)-3-chloro-4-(3-isopropyl-4-(4-(trifluoromethyl)pyrimidin-2-yl)piperazin-1-yl)-2-(methylsulfonyl)benzamide]
- EC50 [1]: 1680 nM
- Cell LXRβ efficacy ([1]; agonist mode): 1679 (12) %
- Ki ([2]; read-out: LXRβ Binding Ki): > 2500 nM
- EC50 [3]: > 20000 nM
- Ki [4]: > 3330 nM

Compound: CCOC(=O)c1cnc(N2CCN(c3ccc(-c4nnc(C)o4)c(S(C)(=O)=O)c3)C[C@H]2C(C)C)nc1C(F)(F)F [9-11, ethyl (R)-2-(2-isopropyl-4-(4-(5-methyl-1,3,4-oxadiazol-2-yl)-3-(methylsulfonyl)phenyl)piperazin-1-yl)-4-(trifluoromethyl)pyrimidine-5-carboxylate]
- EC50 [1]: 869 nM
- Cell LXRβ efficacy ([1]; agonist mode): 869 (9) %
- Ki ([2]; read-out: LXRβ Binding Ki): 839 nM
- EC50 [3]: > 20000 nM
- Ki [4]: 2140 nM

Compound: CC(C)(F)CC1CN(c2ccc(F)c(S(C)(=O)=O)c2)CCN1c1ccc(C(F)(F)F)cn1 (stereo not shown) [35-1, 2-(2-fluoro-2-methylpropyl)-4-(4-fluoro-3-(methylsulfonyl)phenyl)-1-(5-(trifluoromethyl)pyridin-2-yl)piperazine]
- EC50 [1]: 499 nM
- Cell LXRβ efficacy ([1]; agonist mode): 499 (88) %
- Ki ([2]; read-out: LXRβ Binding Ki): 38 nM
- Cell LXRα efficacy [3]: 1522 (97) %
- EC50 [3]: 1520 nM
- Ki [4]: 272 nM

Compound: COC(=O)NCCCN(C)C(=O)c1cnc(N2CCN(c3ccc(F)c(S(C)(=O)=O)c3)C[C@H]2C(C)C)nc1C(F)(F)F [17-19, methyl (R)-(3-(2-(4-(4-fluoro-3-(methylsulfonyl)phenyl)-2-isopropylpiperazin-1-yl)-N-methyl-4-(trifluoromethyl)pyrimidine-5-carboxamido)propyl)carbamate]
- EC50 [1]: > 20000 nM
- Ki ([2]; read-out: LXRβ Binding Ki): 584 nM
- EC50 ([3]; agonist mode): > 20000 nM
- Ki [4]: > 3330 nM

Compound: Cc1csc(-c2ccc(N3CCN(c4ncc(CO)c(C(F)(F)F)n4)[C@H](C(C)C)C3)cc2S(C)(=O)=O)n1 [Cpd No 28-1, (R)-(2-(2-isopropyl-4-(3-(methylsulfonyl)-4-(4-methylthiazol-2-yl)phenyl)piperazin-1-yl)-4-(trifluoromethyl)pyrimidin-5-yl)methanol]
- EC50 [1]: 11 nM
- Cell LXRβ efficacy ([1]; agonist mode): 11 (79) %
- Ki ([2]; read-out: LXRβ Binding Ki): 3 nM
- Cell LXRα efficacy [3]: 66 (80) %
- EC50 ([3]; agonist mode): 66 nM
- Ki [4]: 29 nM

Compound: CC(C)(O)c1cc(CN2CCN(c3cccc(S(C)(=O)=O)c3)C[C@H]2c2ccccc2)ccc1C(F)(F)F [10-14, (R)-2-(5-((4-(3-(methylsulfonyl)phenyl)-2-phenylpiperazin-1-yl)methyl)-2-(trifluoromethyl)phenyl)propan-2-ol]
- EC50 [1]: > 20000 nM
- Ki ([2]; read-out: LXRβ Binding Ki): 1480 nM
- EC50 ([3]; agonist mode): > 20000 nM
- Ki [4]: 4560 nM
